Article PMC7923269 (Journal of Personalized Medicine, 2021)
Like-named read-outs stand apart in the source and are kept apart here.

Columns and labels:
CYP3A [1] = conditions: for Inhibition ratio of urinary 1β-OH-DCA excretion: after/before inhibition by fluvoxamine + voriconazole; for Urinary 1β-OH-DCA excretion: geometric mean (95% CI)
CYP3A [2] = assay: Oral midazolam pharmacokinetics (CYP3A phenotyping) in healthy volunteers at baseline, after inhibition and after induction; assay type: in vivo, human; conditions: MDZ 1 mg oral; for Cmax: human, plasma, po
Procedure: Healthy volunteers were administered, as part of the Geneva cocktail, MDZ 1 mg for CYP3A phenotyping at baseline (control session). During the inhibition session, participants received MDZ 1 mg after fluvoxamine intake (50 mg, two doses 12 h and 2 h before MDZ administration) and voriconazole intake (400 mg, one dose 2 h before MDZ administration). MDZ 1 mg was also received after a pretreatment with the inducer rifampicin (600 mg, one tablet every evening for seven days until the evening before administration of MDZ) (induction session). Urine samples were collected over 8 h after MDZ administration at each session. Venous blood samples (3 mL) were collected before (time 0) as well as 0.5, 1, 2, 3, 4, 6, and 8 h after probe drug administration. Breakfast and lunch were served approximately 1 h and 4 h, respectively, after the blood sampling. The trial is registered at http://www.clinicaltrials.gov (NCT01731067).
Analyses of MDZ and OH-MDZ in plasma were performed using a single reverse-phase high-performance liquid chromatography coupled with tandem mass spectrometry (LC-MS/MS) method as described in the study of Bosilkosvka et al..
The pharmacokinetic parameters of MDZ were obtained by standard noncompartmental methods using WinNonlin version 6.2.1 (Pharsight, Mountain View, CA, USA).
Inhibition ratios were calculated as follows:(1) Inhibition ratio = Metricafter inhibition/Metricbefore inhibition.
Similarly, induction ratios were calculated as follows:(3) Induction ratio = Metricafter induction/Metricbefore induction.

CYP3A [3] = system: CYP3A; set-up: method as in PMID 19701237; conditions: after clarithromycin 250 mg twice daily for five days vs baseline; p = 0.04; cited from earlier work
[4] = induction session (rifampicin 600 mg, 7 days)
[5] = inhibition session (fluvoxamine + voriconazole)

## C[C@H](CCC(=O)O)[C@H]1CC[C@H]2[C@@H]3CC[C@@H]4C[C@H](O)C[C@@H](O)[C@]4(C)[C@H]3C[C@H](O)[C@]12C [1β-OH-DCA, 1β-hydroxy-deoxycholic acid]
CYP3A [1]
  Inhibition ratio of urinary 1β-OH-DCA excretion: 0.62
CYP3A [1]; listed as 1β-OH -DCA
  Inhibition ratio of urinary 1β-OH-DCA excretion: 0.62 (0.26–1.5)
CYP3A [1]; baseline
  Urinary 1β-OH-DCA excretion: 15.5 (5.8–41.3) µg/8 h
CYP3A [1]; [4]
  Urinary 1β-OH-DCA excretion: 61.8 (30.9–123.3) µg/8 h
CYP3A [1]; [5]
  Urinary 1β-OH-DCA excretion: 9.6 (4.1–22.5) µg/8 h

## Cc1ncc2n1-c1ccc(Cl)cc1C(c1ccccc1F)=NC2 [MDZ, midazolam]
CYP3A [2]; baseline, geometric mean (95% CI)
  Oral MDZ CL: 143.0 (107.1–191.0) L/h
CYP3A [2]; [4]
  Oral MDZ CL: 3296 (2351–4622) L/h
  Cmax: 0.15 ng/mL
CYP3A [2]; [5]
  Oral MDZ CL: 24.0 (19.7–29.3) L/h
  Cmax: 11.7 ng/mL
CYP3A [2]; 1 mg, baseline
  Cmax: 3.1 ng/mL

## C[C@]12CCC(=O)C=C1CC[C@@H]1[C@@H]2[C@@H](O)C[C@@]2(C)[C@H]1CC[C@]2(O)C(=O)CO [cortisol]
CYP3A [3]
  Increase in area under the concentration-time curve of plasma endogenous cortisol: 19%
